According to patent US11278555B2, “Combinational therapies for treatment of cancer comprising a bacteriochlorophyll derivative” (Yeda Research and Development Co. Ltd., priority 2016, dated 2022):

Test system: splenic immune cells of 4T1-bearing mice
Experiment: FACS profile of splenic immune cell populations in 4T1-bearing mice after STL-6014 PDT and Gemzar
Type: in vivo
Method: • (i) Bacteriochlorophyll Derivatives—The Bchl derivatives and RGD-conjugates thereof were provided by Steba Biotech (Rehovot, Israel). […] Concentration was verified by spectrophotometric measurement. STL-7012 was provided as dipotassium salt. Working solution was prepared by dissolving STL-7012 K^+ salt in 5% mannitol solution (1 mg/ml). […] WST11 was supplied as a powder and kept in the dark at −20° C. Stock was prepared by dissolving WST11 in DDW containing 5% glucose and 0.67% mannitol, aliquoted and lyophilized. Working solution was reconstituted with DDW and the concentration of solution was confirmed spectrophotometrically. Alternatively, Clinical WST11 (batch: P00611, and 10-130611) was supplied as lyophilized formulation. Material was dissolved in 5% dextrose, aliquoted and stored at −20° C. At the day of treatment the aliquot was thawed, filtered and the concentration of solution was confirmed spectrophotometrically. • (ii) Chemotherapeutic drugs preparation and storage—Gemcitabine (GEM, Gemzar®, Lilly) was purchased from a local pharmacy as a powder, dissolved in saline to a concentration of 38 mg/ml, aliquoted and stored at −20° C. Aliquots were thawed, diluted with saline to a desired concentration and used on the same day at a dose of 75 mg/kg. Cyclophosphamide (CTX, Endoxan®, Baxter Oncology Gmbh, Germany) was purchased from a local pharmacy. A stock solution of 20 mg/ml was prepared by dissolving in 0.9% NaCl, aliquoted and stored at −20° C. Aliquots were thawed, diluted with saline if needed to a desired concentration and used on the same day prepared at indicated doses. • (iii) Murine cell lines—Mammary luciferase (luc)-labeled 4T1 cell line (4T1-Luc) was a kind gift from Dr. Zvi Granot (Faculty of Medicine, The Hebrew University of Jerusalem, Israel); melanoma B16-F10 cell line was obtained from the American Type Culture Collection (ATCC, Manassas, Va.); bladder MB49 cell line was a kind gift from James Allison (MSKCC, New York, USA), and luc-labeled MB49-cell line was established using the murine stem cell virus (MSCV)-puromycin-luc-GFP construct (kindly provided by Dr. Emily Cheng, Human Oncology and Pathogenesis Program, MSKCC). 4T1 and MB49 cells were maintained in DMEM medium and B16-F10 cells in RPMI medium supplemented with 1 mmol/L sodium pyruvate, 10% fetal calf serum (FCS), 250 μg/ml hygromycin, 0.06 mg/ml penicillin and 0.1 mg/ml streptomycin. The cells were grown as monolayer at 37° C. in a humidified atmosphere (5% CO2, 95% air). • (iv) Murine tumor models—Female, Balb/c mice (6-8 week old) were grafted either subcutaneously (s.c.) into the right hind leg or orthotopically with 1×10^6 4T1 cells suspended in 50 or 1000 PBS. For the rechallenge study, 2×10^5 4T1 cells were orthotopically grafted. For bladder cancer model, 5×10^4 of MB49 or MB49-luciferase cell line were s.c. injected into the right flank of C57B/6 male mice (7-8 weeks old, Taconic, Hudson, N.Y.) 15 days prior to VTP treatment. For the efficacy study of VTP in immune compromised mice, the same number of MB49 cells was injected in the flank of Rag^−/− on C57B/6 background or C57B/6 male mice (7-8 week old, Jackson Laboratory, Bar Harbor, Me.). […] Whole body imaging of luciferase-transfected tumors and metastases were recorded five minutes following 75 mg Kg^−1 intraperitoneal (i.p.) injection of D-luciferin with respective filter sets. • (vi) PDT treatment protocol: 4T1-Luc cells were grafted in the mammary pad of Balb/c mice. […]

Compound: Nc1ccn([C@@H]2O[C@H](CO)[C@@H](O)C2(F)F)c(=O)n1 [Gemzar, Gemcitabine]
- percentage of G-MDSC/neutrophils and M-MDSC in spleen compared to control (first week post treatment): significantly reduced
- effect on Treg populations in spleen compared with controls (mouse, in vivo): Much smaller effects
- impact on MDSCs in spleen relative to control (second week post treatment): diminished
